According to patent publication US4525589A, “Isoquinolinesulfonyl derivatives” (Asahi Kasei Kogyo Kabushiki Kaisha, priority 1981, dated 1985):

These molecules were tested on mesenteric artery (assay: Relaxation of mesenteric artery (helical strips contracted with KCl, organ bath)). Settings: Oryctolagus cuniculus, read-out: Relaxation of Mesenteric Artery ED50.
Set-up: species or system rabbit (home bred, Japanese species)
Procedure: After a home bred rabbit of a Japanese species weighing about 3 Kg was subjected to bloodletting, resulting in death and then to abdominal incision, the mesenteric artery was taken out, cut into helicoids of 2 mm×25 mm and suspended in a 20 ml organ bath filled with a Krebs-Henseleit solution into which a mixed gas of 95% by volume of O2 and 5% by volume of CO2 was introduced and one end of the artery was connected with an isometric transducer. When a load of 1.5 g was applied to the artery, the contraction and the relaxation of the artery were recorded as a weight on the transducer (a product of Nippon Koden K.K., Japan, "FD Pickup TB-912T"). The relaxation of the mesenteric artery was observed by adding the isoquinolinesulfonyl derivatives and their pharmaceutically acceptable acid addition salts of this invention to the mesenteric artery at the condition of about one half of the maximum contraction with KCl at a KCl concentration of 15~20 mM. When the complete relaxation of the mesenteric artery was designated 100%, the concentration of the isoquinolinesulfonyl derivatives and their pharmaceutically acceptable acid addition salts which brought about a relaxation of 50% is shown in Table 12.

SMILES | EC50 [µM]
CC1CNCCN1S(=O)(=O)c1cccc2cnccc12 (stereo not drawn) [Compound (38), 1-(5-isoquinolinesulfonyl)-2-methylpiperazine] | 5

Same assay, conditions: Oryctolagus cuniculus; concentration for 50% relaxation; KCl 15~20 mM contraction; read-out: Relaxation of Mesenteric Artery ED50

SMILES | EC50 [µM]
O=C(C=Cc1ccccc1)N1CCN(S(=O)(=O)c2cccc3cnccc23)CC1 [Compound (60), 1-(5-isoquinolinesulfonyl)-4-cinnamoylpiperazine] | 27
CCC1CN(S(=O)(=O)c2cccc3cnccc23)C(CC)CN1 (stereo not drawn) [Compound (48), 1-(5-isoquinolinesulfonyl)-2,5-diethylpiperazine] | 1.8
CN(CCCNS(=O)(=O)c1cccc2cnccc12)Cc1ccccc1 [Compound (24), N-[3-(N-methyl-N-benzylamino)propyl]-5-isoquinolinesulfonamide] | 17
CCN1CCN(S(=O)(=O)c2cccc3cnccc23)CC1 [Compound (42), 1-(5-isoquinolinesulfonyl)-4-ethylpiperazine] | 18
O=S(=O)(c1cccc2cnccc12)N1CCNC(c2ccccc2)C1 (stereo not drawn) [Compound (53), 1-(5-isoquinolinesulfonyl)-3-phenylpiperazine] | 7
CC(C)CC1CN(S(=O)(=O)c2cccc3cnccc23)C(C)CN1 (stereo not drawn) [Compound (49), 1-(5-isoquinolinesulfonyl)-2-methyl-5-isobutylpiperazine] | 10
O=S(=O)(NCCCN1CCOCC1)c1cccc2cnccc12 [Compound (21), N-(3-morpholinopropyl)-5-isoquinolinesulfonamide] | 50
CC1CN(S(=O)(=O)c2cccc3cnccc23)C(C)CN1 (stereo not drawn) [Compound (40), 1-(5-isoquinolinesulfonyl)-2,5-dimethylpiperazine] | 0.6
O=S(=O)(c1cccc2cnccc12)N1CCN(CCc2ccccc2)CC1 [Compound (57), 1-(5-isoquinolinesulfonyl)-4-phenethylpiperazine] | 12
CCC1CN(S(=O)(=O)c2cccc3cnccc23)CCN1 (stereo not drawn) [Compound (43), 1-(5-isoquinolinesulfonyl)-3-ethylpiperazine] | 6.1
O=S(=O)(c1cccc2cnccc12)N1CCN(c2ccccc2)CC1 [Compound (55), 1-(5-isoquinolinesulfonyl)-4-phenylpiperazine] | 9
CCCCN(CCCC)S(=O)(=O)c1cccc2cnccc12 [Compound (31), N,N-di-n-butyl-5-isoquinolinesulfonamide] | 28
CCCCN(CCCC)CCCNS(=O)(=O)c1cccc2cnccc12 [Compound (19), N-(3-di-n-butylaminopropyl)-5-isoquinolinesulfonamide] | 17
CCOC(CN1CCN(S(=O)(=O)c2cccc3cnccc23)CC1)c1ccccc1 (stereo not drawn) [Compound (63), 1-(5-isoquinolinesulfonyl)-4-(2-ethoxy-2-phenylethyl)piperazine] | 13
O=S(=O)(NCCCN1CCCCC1)c1cccc2cnccc12 [Compound (20), N-(3-piperidinopropyl)-5-isoquinolinesulfonamide] | 42
CC1CN(S(=O)(=O)c2cccc3cnccc23)CC(C)N1 (stereo not drawn) [Compound (39), 1-(5-isoquinolinesulfonyl)-3,5-dimethylpiperazine] | 9.5
O=C(c1ccccc1)N1CCN(S(=O)(=O)c2cccc3cnccc23)CC1 [Compound (58), 1-(5-isoquinolinesulfonyl)-4-benzoylpiperazine] | 40
NCCCCCCCCCCNS(=O)(=O)c1cccc2cnccc12 [Compound (5), N-(10-aminodecyl)-5-isoquinolinesulfonamide] | 14
NCCCCNS(=O)(=O)c1cccc2cnccc12 [Compound (3), N-(4-aminobutyl)-5-isoquinolinesulfonamide] | 11
CCCN1CCN(S(=O)(=O)c2cccc3cnccc23)CC1 [Compound (44), 1-(5-isoquinolinesulfonyl)-4-n-propylpiperazine] | 8.6
CN(CCCNS(=O)(=O)c1cccc2cnccc12)c1ccccc1 [Compound (23), N-[3-(N-methyl-N-phenylamino)propyl]-5-isoquinolinesulfonamide] | 4
O=S(=O)(c1cccc2cnccc12)N1CCN(Cc2ccccc2)CC1 [Compound (56), 1-(5-isoquinolinesulfonyl)-4-benzylpiperazine] | 23
CNS(=O)(=O)c1cccc2cnccc12 [Compound (25), N-methyl-5-isoquinolinesulfonamide] | 13
O=S(=O)(c1cccc2cnccc12)N1CCOCC1 [Compound (34), 1-(5-isoquinolinesulfonyl)morpholine] | 10

Results, then the molecule that gave them:

EC50 [µM] | SMILES
10 | CC(C)NCCNS(=O)(=O)c1cccc2cnccc12 [Compound (16), N-(2-isopropylaminoethyl)-5-isoquinolinesulfonamide]
8.8 | CCNS(=O)(=O)c1cccc2cnccc12 [Compound (26), N-ethyl-5-isoquinolinesulfonamide]
13 | CN(C)S(=O)(=O)c1cccc2cnccc12 [Compound (29), N,N-dimethyl-5-isoquinolinesulfonamide]
7.5 | CC(C)C1CN(S(=O)(=O)c2cccc3cnccc23)CCN1 (stereo not drawn) [Compound (45), 1-(5-isoquinolinesulfonyl)-3-isopropylpiperazine]
30 | CCN(CC)CCCNS(=O)(=O)c1cccc2cnccc12 [Compound (18), N-(3-diethylaminopropyl)-5-isoquinolinesulfonamide]
19 | CCCCC(CN)NS(=O)(=O)c1cccc2cnccc12 (stereo not drawn) [Compound (8), N-(1-aminomethylpentyl)-5-isoquinolinesulfonamide]
28 | CC(C)C(N)CNS(=O)(=O)c1cccc2cnccc12 (stereo not drawn) [Compound (11), N-(2-amino-3-methylbutyl)-5-isoquinolinesulfonamide]
10 | CN(C)CCCNS(=O)(=O)c1cccc2cnccc12 [Compound (17), N-(3-dimethylaminopropyl)-5-isoquinolinesulfonamide]
10 | NCCCCCCNS(=O)(=O)c1cccc2cnccc12 [Compound (4), N-(6-aminohexyl)-5-isoquinolinesulfonamide]
24 | CC(C)CN1CCN(S(=O)(=O)c2cccc3cnccc23)CC1 [Compound (47), 1-(5-isoquinolinesulfonyl)-4-isobutylpiperazine]
18 | CC(C)N(CCNS(=O)(=O)c1cccc2cnccc12)Cc1ccccc1 [Compound (67), N-[2-(N-isopropyl-N-benzylamino)ethyl]-5-isoquinolinesulfonamide]
21 | CCCCNS(=O)(=O)c1cccc2cnccc12 [Compound (27), N-n-Butyl-5-isoquinolinesulfonamide]
15 | CC(N)CNS(=O)(=O)c1cccc2cnccc12 (stereo not drawn) [Compound (9), N-(2-aminopropyl)-5-isoquinolinesulfonamide]
19 | CC(C)CNS(=O)(=O)c1cccc2cnccc12 [Compound (28), N-isobutyl-5-isoquinolinesulfonamide]
7 | NCCCNS(=O)(=O)c1cccc2cnccc12 [Compound (2), N-(3-aminopropyl)-5-isoquinolinesulfonamide]
10 | CC(CN)NS(=O)(=O)c1cccc2cnccc12 (stereo not drawn) [Compound (6), N-(2-amino-1-methylethyl)-5-isoquinolinesulfonamide]
8.9 | CCN(CC)S(=O)(=O)c1cccc2cnccc12 [Compound (30), N,N-diethyl-5-isoquinolinesulfonamide]
